Results reported in patent US10894807B2 (Siemens Medical Solutions USA, Inc., priority 2011, dated 2021).
Values joined by “and” are separate entries in the source; they are usually repeats but may differ in a detail not shown here. Identical values can stand only once.

Target: human PSMA (Homo sapiens (Human), UniProt Q04609)
Assay: Enzymatic assay for in vitro evaluation of PSMA inhibitors (fluorescent assay of PSMA activity, NAAG substrate, OPA detection of glutamate)
Format: biochemical

Chain of human PSMA (Q04609 whole entry): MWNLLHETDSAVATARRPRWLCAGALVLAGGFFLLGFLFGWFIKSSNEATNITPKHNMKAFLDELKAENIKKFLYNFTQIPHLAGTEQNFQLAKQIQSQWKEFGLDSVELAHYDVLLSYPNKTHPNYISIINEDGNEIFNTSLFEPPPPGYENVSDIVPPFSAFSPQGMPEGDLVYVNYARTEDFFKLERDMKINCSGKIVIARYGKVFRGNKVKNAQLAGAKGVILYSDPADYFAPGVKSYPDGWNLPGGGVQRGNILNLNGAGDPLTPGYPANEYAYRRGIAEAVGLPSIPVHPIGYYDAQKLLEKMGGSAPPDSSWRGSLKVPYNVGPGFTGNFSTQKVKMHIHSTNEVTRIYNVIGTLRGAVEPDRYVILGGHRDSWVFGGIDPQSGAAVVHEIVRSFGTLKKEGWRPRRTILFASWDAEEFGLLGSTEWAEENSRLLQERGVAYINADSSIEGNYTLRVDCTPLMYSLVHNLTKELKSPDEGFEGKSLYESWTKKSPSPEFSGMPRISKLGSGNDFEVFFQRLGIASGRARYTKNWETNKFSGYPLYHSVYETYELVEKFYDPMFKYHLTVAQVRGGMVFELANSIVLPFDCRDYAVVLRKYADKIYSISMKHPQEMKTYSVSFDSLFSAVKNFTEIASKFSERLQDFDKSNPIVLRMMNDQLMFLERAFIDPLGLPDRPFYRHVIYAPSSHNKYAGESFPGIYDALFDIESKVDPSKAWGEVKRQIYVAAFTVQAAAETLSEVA

SMILES | PSMA Blkg % (10 μM) (compound at 10 μM) | Ki | other results
O=C(O)CCC(C(=O)O)N1C(=O)N[C@@H](CC2CCN(C(=O)c3ccc(-n4cc(CCCF)nn4)cc3)CC2)C1=O (stereo partly drawn) [P257, 2-((S)-4-((1-(4-(4-(3-Fluoropropyl)-1H-1,2,3-triazol-1-yl)benzoyl)piperidin-4-yl)methyl)-2,5-dioxoimidazolidin-1-yl)pentanedioic Acid] |  |  | PSMA Blkg % (1.0 μM): 5%
COc1ccc(CCNC(=O)N(O)CC(=O)N[C@@H](CCC(=O)O)C(=O)O)cc1OC [P149, (S)-2-(2-(3-(3,4-Dimethoxyphenethyl)-1-hydroxyureido)acetamido)pentanedioic Acid] | 0% |  | 
O=C(O)CC[C@H](NC(=O)N(O)[C@@H](CCCCNC(=O)c1ccc(OCCF)cc1)C(=O)O)C(=O)O [P167, (S)-2-(3-((S)-1-Carboxy-5-(4-(2-fluoroethoxy)benzamido)pentyl)-3-hydroxyureido)pentanedioic Acid] | 93% | > 657 nM | 
CC(F)C(=O)Nc1ccc(C(=O)NCCCCC(C(=O)O)N(C)C(=O)N[C@@H](CCC(=O)O)C(=O)O)cc1 (stereo partly drawn) [P158, (2S)-2-(3-((S)-1-Carboxy-5-(4-(2-fluoropropanamido)benzamido)pentyl)-3-methylureido)pentanedioic Acid] | 99% | 34.4 nM | 
CN(C(=O)[C@H](CC(=O)O)NC(=O)c1ccc(F)cc1)[C@@H](CCC(=O)O)C(=O)O [P163, (S)-2-((S)-3-Carboxy-2-(4-fluorobenzamido)-N-methylpropanamido)pentanedioic Acid] | 0% |  | 
O=C(O)CCC(CP(=O)(O)OCCOCCOCCOCCn1cc(CCCF)nn1)C(=O)O (stereo not shown) [P193, 2-(((2-(2-(2-(2-(4-(3-Fluoropropyl)-1H-1,2,3-triazol-1-yl)ethoxy)ethoxy)ethoxy)ethoxy)(hydroxy)phosphoryl)methyl)pentanedioic Acid] |  |  | PSMA Blkg % (10 μM): 0%
O=C(O)CC[C@H](NC(=O)N[C@@H](Cc1ccc(OCCn2cc(CCCF)nn2)cc1)C(=O)O)C(=O)O [P195, (S)-2-(3-((S)-1-Carboxy-2-(4-(2-(4-(3-fluoropropyl)-1H-1,2,3-triazol-1-yl)ethoxy)phenyl)ethyl)ureido)pentanedioic Acid] |  | 66 nM | PSMA Blkg % (10 μM): 96%
C[C@@H](C(=O)O)N(C)C(=O)N[C@@H](CCC(=O)O)C(=O)O [P024, (S)-2-(3-((S)-1-carboxyethyl)-3-methylureido)pentanedioic Acid] | 6% |  | 
O=C(O)CC[C@@H](C(=O)O)N(O)C(=O)N[C@@H](CCCCNC(=O)c1ccc(F)cc1)C(=O)O [P162, (S)-2-(3-((S)-1-Carboxy-5-(4-fluorobenzamido)pentyl)-1-hydroxyureido)pentanedioic Acid] | 79% | > 531 nM | 
O=C(O)CC[C@H](NC(=O)N[C@@H](Cc1ccc(NC(=O)CCC(CCC(=O)Nc2ccc(C[C@H](NC(=O)N[C@@H](CCC(=O)O)C(=O)O)C(=O)O)cc2)(CCC(=O)Nc2ccc(C[C@H](NC(=O)N[C@@H](CCC(=O)O)C(=O)O)C(=O)O)cc2)NC(=O)Cn2cc(CCCF)nn2)cc1)C(=O)O)C(=O)O [P291, (2S,2′S)-2,2′-(((((1S,1′S)-((((4S)-4-(3-((4-((2S)-2-Carboxy-2-(3-(1,3-dicarboxypropyl)-ureido)ethyl)phenyl)amino)-3-oxopropyl)-4-(2-(4-(3-fluoropropyl)-1H-1,2,3-triazol-1-yl)acetamido)heptanedioyl)bis(azanediyl))bis(4,1-phenylene))bis(1-carboxyethane-2,1-diyl))bis(azanediyl))bis(carbonyl))bis(azanediyl))dipentanedioic Acid] |  | 5 nM | PSMA Blkg % (1.0 μM): 95%
O=C(O)CC[C@H](NC(=O)N[C@@H](COC(=O)N1CCN(C(=O)OCc2ccccc2)CC1)C(=O)O)C(=O)O [P224, (S)-2-(3-((S)-2-((4-((Benzyloxy)carbonyl)piperazine-1-carbonyl)oxy)-1-carboxyethyl)ureido)pentanedioic Acid] |  |  | PSMA Blkg % (1.0 μM): 65%
CN(C(=O)CCCC(=O)O)[C@@H](CCC(=O)O)C(=O)O [P029, (S)-2-(4-Carboxy-N-methylbutanamido)pentanedioic Acid] | 12% |  | 
O=C(O)CC[C@H](NC(=O)N[C@@H](Cc1ccc(NC(=O)c2ccc(-n3cc(CCCF)nn3)cc2)cc1)C(=O)O)C(=O)O [P215, (S)-2-(3-((S)-1-Carboxy-2-(4-(4-(4-(3-fluoropropyl)-1H-1,2,3-triazol-1-yl)-benzamido)-phenyl)ethyl)ureido)pentanedioic Acid] |  | 2.2 nM | PSMA Blkg % (10 μM): 99%
O=C(O)CC[C@@H](C(=O)O)N1C(=O)C(=O)N([C@@H](CCCCNC(=O)OCc2ccccc2)C(=O)O)C1=O [P072, (S)-2-(3-((S)-5-(Benzyloxycarbonylamino)-1-carboxypentyl)-2,4,5-trioxoimidazolidin-1-yl)pentanedioic Acid] | 39% |  | 
O=C(O)CC[C@H](NC(=O)N[C@@H](Cc1ccc(NC(=O)CCC(CCC(=O)Nc2ccc(C[C@H](NC(=O)N[C@@H](CCC(=O)O)C(=O)O)C(=O)O)cc2)NC(=O)c2ccc(-n3cc(CCCF)nn3)cc2)cc1)C(=O)O)C(=O)O [P280, (2S,2′S)-2,2′(((((1S,1′S)(((4-(4-(4-(3-Fluoropropyl)-1H-1,2,3-triazol-1-yl)-benzamido)-heptanedioyl)-bis(azanediyl))-bis(4,1-phenylene))-bis(1-carboxyethane-2,1-diyl))-bis(azanediyl))-bis(carbonyl))-bis(azanediyl))-dipentanedioic Acid] |  | 0.9 nM | 
O=C(O)CC[C@H](NC(=O)NNC(=O)CCCc1ccc(-n2cc(CCCF)nn2)cc1)C(=O)O [P100, (S)-2-(2-(4-(4-(4-(3-Fluoropropyl)-1H-1,2,3-triazol-1-yl)phenyl)butanoyl)-hydrazinecarboxamido)pentanedioic Acid] | 3% |  | 
O=C(O)CCC(NC(=O)N[C@@H](CCCCNc1nc(NCCN(CCNc2ccc([N+](=O)[O-])c(NCCCCC(NC(=O)N[C@@H](CCC(=O)O)C(=O)O)C(=O)O)n2)CCNc2ccc([N+](=O)[O-])c(NCCCCC(NC(=O)N[C@@H](CCC(=O)O)C(=O)O)C(=O)O)n2)ccc1[N+](=O)[O-])C(=O)O)C(=O)O (stereo in doubt) [P270, (2S,2′S,2″S)-2,2′,2″-(((((1S,1′S,1″S)-((6,6′,6″-((Nitrilotris(ethane-2,1-diyl))tris(azanediyl))tris(3-nitropyridine-6,2-diyl))tris(azanediyl))tris(1-carboxypentane-5,1-diyl))tris(azanediyl))tris(carbonyl))tris(azanediyl))tripentanedioic Acid] |  | 0.2 nM | PSMA Blkg % (1.0 μM): 71%
CCC1(CC)C(=O)N([C@@H](CCCCn2cc(COCCOCCNc3ccc([N+](=O)[O-])cc3[N+](=O)[O-])nn2)C(=O)O)C(=O)N([C@@H](CCC(=O)O)C(=O)O)C1=O [P151, (S)-2-(3-((S)-1-Carboxy-5-(4-((2-(2-(2,4-dinitrophenylamino)ethoxy)ethoxy)methyl)-1H-1,2,3-triazol-1-yl)pentyl)-5,5-diethyl-2,4,6-trioxotetrahydropyrimidin-1(2H)-yl)pentanedioic Acid] | 17% |  | 
O=C(O)CC[C@H](NC(=O)N[C@@H](Cc1ccc(NC(=O)N2CCN(C(=O)c3ccc(-n4cc(CCCF)nn4)cc3)CC2)cc1)C(=O)O)C(=O)O [P248, (S)-2-(3-((S)-1-Carboxy-2-(4-(4-(4-(4-(3-fluoropropyl)-1H-1,2,3-triazol-1-yl)benzoyl)piperazine-1-carboxamido)phenyl)ethyl)ureido)pentanedioic Acid] |  | 3.4 nM | PSMA Blkg % (1.0 μM): 100%
O=C(O)CC[C@H](NC(=O)[C@H](CC(=O)O)NC(=O)CCCNC(=O)c1cc(C(=O)NCCCC(=O)N[C@@H](CC(=O)O)C(=O)N[C@@H](CCC(=O)O)C(=O)O)cc([N+](=O)[O-])c1)C(=O)O [P293, (2S,2′S)-2,2′-(((2S,2′S)-2,2′-((4,4′-((5-Nitroisophthaloyl)bis(azanediyl))bis(butanoyl))-bis(azanediyl))bis(3-carboxypropanoyl))bis(azanediyl))dipentanedioic Acid] |  |  | PSMA Blkg % (1.0 μM): 45% and 90%
O=C(O)CCC(NC(=O)C[C@@H](NC(=O)CCNC(=O)c1cc(C(=O)NCCC(=O)N[C@H](CC(=O)NC(CCC(=O)O)C(=O)O)C(=O)O)cc(-n2cc(CCCF)nn2)c1)C(=O)O)C(=O)O (stereo partly drawn) [P252, (2S,2′S)-2,2′-(((3R,3′R)-3,3′-((3,3′-((5-(4-(3-Fluoropropyl)-1H-1,2,3-triazol-1-yl)isophthaloyl)bis(azanediyl))bis(propanoyl))bis(azanediyl))bis(3-carboxypropanoyl))bis(azanediyl))dipentanedioic Acid] |  | 94 nM | PSMA Blkg % (1.0 μM): 59%
CC(C)(C)OC(=O)NCCCCN(CC(=O)N[C@@H](CCC(=O)O)C(=O)O)C(=O)NO [P042, (S)-2-(2-(1-(4-(tert-Butoxycarbonylamino)butyl)-3-hydroxyureido)acetamido) pentanedioic Acid] | 0% |  | 
O=C(O)CC[C@H](NC(=O)C[C@H](NC(=O)CCCc1ccc([N+](=O)[O-])cc1)C(=O)O)C(=O)O [P123, (S)-2-((S)-3-Carboxy-3-(4-(4-nitrophenyl)butanamido)propanamido)pentanedioic Acid] | 17% |  | 
NCCOCCOCCOCCOCCn1cc(-c2ccc(C(=O)NCCCC[C@H](NC(=O)N[C@@H](CCC(=O)O)C(=O)O)C(=O)O)cc2)nn1 [P258, (S)-2-(3-((S)-5-(4-(1-(14-Amino-3,6,9,12-tetraoxatetradecyl)-1H-1,2,3-triazol-4-yl)benzamido)-1-carboxypentyl)ureido)pentanedioic Acid] |  | 41 nM | 
[N-]=[N+]=NCCCCC(=O)NCCCC[C@@H](C(=O)O)N1C(=O)CC(=O)N([C@@H](CCC(=O)O)C(=O)O)C1=O [P073, (S)-2-(3-((S)-5-(5-Azidopentanamido)-1-carboxypentyl)-2,4,6-trioxotetrahydropyrimidin-1(2H)-yl)pentanedioic Acid] | 2% |  | 
